Reference: patent US9758494B2, “N-(oxazol-2-yl)-aryl-carboxylic acid amides and use thereof as herbicides” (BAYER CROPSCIENCE AG, priority 2012, dated 2017)

Experiments:
Format in all cases: in vivo
Avena fatua [1] = test: Post-emergence herbicidal action; details: Dosage 80/ha (Table P)
Method: (§1) Seeds of monocotyledonous and dicotyledonous weed plants and crop plants are laid out in wood fiber pots in sandy loam, covered with soil and cultivated in a greenhouse under good growth conditions. 2 to 3 weeks after sowing, the test plants are treated at the one-leaf stage. The compounds according to the invention, formulated in the form of wettable powders (WP) or as emulsion concentrates (EC), are then sprayed onto the green parts of the plants in the form of an aqueous suspension or emulsion at a water application rate equating to 600 to 800 l/ha, with addition of 0.2% wetting agent. After the test plants have been left to stand in the greenhouse under optimal growth conditions for about 3 weeks, the action of the preparations is assessed visually in comparison to untreated controls (herbicidal action in percent (%): 100% activity=the plants have died, 0% activity=like control plants). Here, for example, compounds No. 1-163, 1-171, 1-172, 1-173, 1-254, 1-283, 1-284, 1-293, 1-294 and 1-334, at an application rate of 80 g/ha, have an activity of at least 80% against Abutilon theophrasti and Amaranthus retroflexus.
(§2) In the tables below, the properties of the compounds according to the invention are compared to those of the structurally most similar compounds known from WO 2012/028579 A1. These tests were carried out by the pre- and post-emergence method under the conditions mentioned under item 1 and item 2. Here, the herbicidal activity against various harmful plants and the damage of some important crop plants were compared at different dosages.

Alopecurus myosuroides [2] = test: Post-emergence herbicidal action; details: Dosage 80/ha (Table P)
Method: as §1, §2

Lolium multiflorum [3] = test: Post-emergence herbicidal action; details: Dosage 80/ha (Table P)
Method: as §1, §2

Setaria viridis = test: Post-emergence herbicidal action; details: Dosage 80/ha (Table P)
Method: as §1, §2

Polygonum convolvulus = test: Pre-emergence herbicidal action; details: Dosage 320/ha (Table E)
Source text: (§3) Seeds of monocotyledonous and dicotyledonous weed plants and crop plants are laid out in wood-fiber pots in sandy loam and covered with soil. The compounds according to the invention, formulated in the form of wettable powders (WP) or as emulsion concentrates (EC), are then applied to the surface of the soil cover in the form of an aqueous suspension or emulsion at a water application rate equating to 600 to 800 l/ha, with addition of 0.2% wetting agent. After the treatment, the pots are placed in a greenhouse and kept under good growth conditions for the test plants. The damage to the test plants is assessed visually after a test period of 3 weeks by comparison with untreated controls (herbicidal activity in percent (%): 100% activity=the plants have died, 0% activity=like control plants). Here, for example, compounds No. 1-163, 1-171, 1-172, 1-283, 1-284, 1-294, 1-295, 1-334, 10-001 and 11-343, at an application rate of 320 g/ha, have an activity of at least 80% against Veronica persica.
as §2

Abutilon theophrasti = test: Pre-emergence herbicidal action; details: Dosage 320/ha (Table C)
Source text: as §3, §2

Amaranthus retroflexus = test: Pre-emergence herbicidal action; details: Dosage 320/ha (Table C)
Source text: as §3, §2

Alopecurus myosuroides [4] = test: Pre-emergence herbicidal action; details: Dosage 320/ha (Table D)
Source text: as §3, §2

Matricaria inodora = test: Pre-emergence herbicidal action
Source text: as §3, §2

Lolium multiflorum [5] = test: Pre-emergence herbicidal action; details: Dosage 320/ha (Table E)
Source text: as §3, §2

Echinochloa crus galli = test: Pre-emergence herbicidal action
Source text: as §3, §2

[6] = system: Triticum aestivum (Wheat); test: Post-emergence, damage of crop plants
Method: as §1, §2

[7] = system: Brassica napus (Oilseed Rape); test: Post-emergence, damage of crop plants
Method: as §1, §2

Oryza sativa (Rice) [8] = test: Post-emergence, damage of crop plants
Method: as §1, §2

[9] = system: Triticum aestivum (Wheat); test: Pre-emergence, damage of crop plants; details: for damage of crop plants, Crop plant TRZAS: Dosage 320/ha (Table E)
Source text: as §3, §2

[10] = system: Brassica napus (Oilseed Rape); test: Pre-emergence, damage of crop plants; details: for damage of crop plants, Crop plant BRSNW: Dosage 320/ha (Table D)
Source text: as §3, §2

Oryza sativa (Rice) [11] = test: Pre-emergence, damage of crop plants; details: for damage of crop plants, Crop plant ORYZA: Dosage 320/ha (Table E)
Source text: as §3, §2

Veronica persica = test: Post-emergence herbicidal action; details: Dosage 5/ha (Table T)
Method: as §1, §2

Stellaria media = test: Post-emergence herbicidal action; details: Dosage 5/ha (Table T)
Method: as §1, §2

Avena fatua [12] = test: Pre-emergence herbicidal action
Source text: as §3, §2

Pharbitis purpureum = test: Post-emergence herbicidal action; details: Dosage 20/ha (Table S)
Method: as §1, §2

Zea mays (Corn) [13] = test: Post-emergence, damage of crop plants
Method: as §1, §2

Zea mays (Corn) [14] = test: Pre-emergence, damage of crop plants; details: Dosage 320/ha (Table G)
Source text: as §3, §2

## Cc1c(C(=O)Nc2ncco2)ccc(S(C)(=O)=O)c1S(C)(=O)=O [1-163]
Avena fatua [1]
  herbicidal activity against harmful plants AVEFA: 40%
Alopecurus myosuroides [2]
  herbicidal activity against harmful plants ALOMY: 60%
Lolium multiflorum [3]
  herbicidal activity against harmful plants LOMU: 20%
Setaria viridis
  herbicidal activity against harmful plants SETVI: 100%
Polygonum convolvulus
  herbicidal activity, Harmful plant POLCO: 70%
Abutilon theophrasti
  herbicidal activity against harmful plants ABUTH: 100%
Amaranthus retroflexus
  herbicidal activity against harmful plants AMARE: 90%
Alopecurus myosuroides [4]
  herbicidal activity, Harmful plant ALOMY: 30%
Matricaria inodora; Dosage 320/ha (Table C)
  herbicidal activity against harmful plants MATIN: 100%
Lolium multiflorum [5]
  herbicidal activity, Harmful plant LOLMU: 100%
Echinochloa crus galli; Dosage 320/ha (Table C)
  herbicidal activity against harmful plants ECHCG: 70%
[6]; Dosage 20/ha (Table O)
  damage of crop plants TRZAS: 20%
[7]; Dosage 20/ha (Table O)
  damage of crop plants BRSNW: 40%
Oryza sativa (Rice) [8]; Dosage 20/ha (Table O)
  damage of crop plants ORYZA: 0%
[9]
  damage of crop plants, Crop plant TRZAS: 0%
[10]
  damage of crop plants, Crop plant BRSNW: 10%
Oryza sativa (Rice) [11]
  damage of crop plants, Crop plant ORYZA: 0%

## Cc1c(C(=O)Nc2nnnn2-c2ccccc2)ccc(S(C)(=O)=O)c1S(C)(=O)=O [WO 2012/028579, No. 6-189]
Avena fatua [1]
  herbicidal activity against harmful plants AVEFA: 0%
Alopecurus myosuroides [2]
  herbicidal activity against harmful plants ALOMY: 0%
Lolium multiflorum [3]
  herbicidal activity against harmful plants LOMU: 0%
Setaria viridis
  herbicidal activity against harmful plants SETVI: 20%
Polygonum convolvulus
  herbicidal activity, Harmful plant POLCO: 0%
Alopecurus myosuroides [4]
  herbicidal activity, Harmful plant ALOMY: 0%
Lolium multiflorum [5]
  herbicidal activity, Harmful plant LOLMU: 70%
[9]
  damage of crop plants, Crop plant TRZAS: 30%
[10]
  damage of crop plants, Crop plant BRSNW: 90%
Oryza sativa (Rice) [11]
  damage of crop plants, Crop plant ORYZA: 80%

## Cn1ncnc1NC(=O)c1ccc(C(F)(F)F)nc1Cl [WO 2012/028579, No. 8-9]
Veronica persica
  herbicidal activity against harmful plants VERPE: 60%
Stellaria media
  herbicidal activity against harmful plants STEME: 10%
Matricaria inodora; Dosage 80/ha (Table H)
  herbicidal activity against harmful plants MATIN: 60%
Echinochloa crus galli; Dosage 80/ha (Table H)
  herbicidal activity against harmful plants ECGCG: 0%

## CCS(=O)(=O)c1ccc(C(=O)Nc2nnnn2C)c(Cl)c1C1=NOC(CC#N)C1 (stereo not shown) [WO 2012/028579, No. 4-268]
Avena fatua [12]; 20 g/ha (Table K)
  Herbicidal activity against AVEFA: 0%
Avena fatua [12]; 80 g/ha (Table K)
  Herbicidal activity against AVEFA: 0%
[7]; 5 g/ha (Table W)
  Damage of BRSNW: 80%
[7]; 20 g/ha (Table W)
  Damage of BRSNW: 100%

## CSc1c(C(F)(F)F)ccc(C(=O)Nc2nnnn2C)c1C [WO 2012/028579, No. 4-135]
[6]; Dosage 80/ha (Table M)
  damage of crop plants TRZAS: 100%
[7]; Dosage 80/ha (Table M)
  damage of crop plants BRSNW: 100%
Oryza sativa (Rice) [8]; Dosage 80/ha (Table M)
  damage of crop plants ORYZA: 100%
[9]; Dosage 80/ha (Table A)
  damage of crop plants TRZAS: 60%
[10]; Dosage 80/ha (Table A)
  damage of crop plants BRSNW: 80%
Oryza sativa (Rice) [11]; Dosage 80/ha (Table A)
  damage of crop plants ORYZA: 60%

## C[S+]([O-])c1c(C(F)(F)F)ccc(C(=O)Nc2ncco2)c1Cl (stereo not shown) [1-294]
Pharbitis purpureum
  herbicidal activity, Harmful plant PHBPU: 70%
[6]; Dosage 20/ha (Table S)
  damage of crop plants, Crop plants TRZAS: 0%
Zea mays (Corn) [13]; Dosage 20/ha (Table S)
  damage of crop plants, Crop plants ZEAMX: 0%
Oryza sativa (Rice) [8]; Dosage 20/ha (Table S)
  damage of crop plants, Crop plants ORYZA: 0%
Zea mays (Corn) [14]
  damage of crop plants ZEAMX: 0%
[10]; Dosage 320/ha (Table G)
  damage of crop plants BRSNW: 20%
Oryza sativa (Rice) [11]; Dosage 320/ha (Table G)
  damage of crop plants ORYZA: 30%

## Cn1nnnc1NC(=O)c1ccc(C(F)(F)F)nc1Cl [WO 2012/028579, No. 8-10]
Zea mays (Corn) [13]; Dosage 80 g/ha (Table U)
  damage of crop plants ZEAMX: 90%
Oryza sativa (Rice) [8]; Dosage 80 g/ha (Table U)
  damage of crop plants ORYZA: 90%
Oryza sativa (Rice) [11]; 20 g/ha (Table I)
  Damage of ORYZA: 50%
Oryza sativa (Rice) [11]; 80 g/ha (Table I)
  Damage of ORYZA: 90%

## CSc1c(C(F)(F)F)ccc(C(=O)Nc2ncco2)c1C [1-171]
[6]; Dosage 80/ha (Table M)
  damage of crop plants TRZAS: 0%
[6]; Dosage 80/ha (Table N)
  damage of crop plants TRZAS: 0%
[7]; Dosage 80/ha (Table M)
  damage of crop plants BRSNW: 0%
[7]; Dosage 80/ha (Table N)
  damage of crop plants BRSNW: 0%
Oryza sativa (Rice) [8]; Dosage 80/ha (Table M)
  damage of crop plants ORYZA: 0%
Oryza sativa (Rice) [8]; Dosage 80/ha (Table N)
  damage of crop plants ORYZA: 0%
[9]; Dosage 80/ha (Table A)
  damage of crop plants TRZAS: 0%
[9]; Dosage 80/ha (Table B)
  damage of crop plants TRZAS: 0%
[10]; Dosage 80/ha (Table A)
  damage of crop plants BRSNW: 30%
[10]; Dosage 80/ha (Table B)
  damage of crop plants BRSNW: 30%
Oryza sativa (Rice) [11]; Dosage 80/ha (Table A)
  damage of crop plants ORYZA: 0%
Oryza sativa (Rice) [11]; Dosage 80/ha (Table B)
  damage of crop plants ORYZA: 0%
